Assay in all cases: IC50 Determination
Experiment [1] deals with T1, Aldehyde dehydrogenase 1A1 (Homo sapiens, UniProt P00352).
T1 sequence (P00352 whole entry): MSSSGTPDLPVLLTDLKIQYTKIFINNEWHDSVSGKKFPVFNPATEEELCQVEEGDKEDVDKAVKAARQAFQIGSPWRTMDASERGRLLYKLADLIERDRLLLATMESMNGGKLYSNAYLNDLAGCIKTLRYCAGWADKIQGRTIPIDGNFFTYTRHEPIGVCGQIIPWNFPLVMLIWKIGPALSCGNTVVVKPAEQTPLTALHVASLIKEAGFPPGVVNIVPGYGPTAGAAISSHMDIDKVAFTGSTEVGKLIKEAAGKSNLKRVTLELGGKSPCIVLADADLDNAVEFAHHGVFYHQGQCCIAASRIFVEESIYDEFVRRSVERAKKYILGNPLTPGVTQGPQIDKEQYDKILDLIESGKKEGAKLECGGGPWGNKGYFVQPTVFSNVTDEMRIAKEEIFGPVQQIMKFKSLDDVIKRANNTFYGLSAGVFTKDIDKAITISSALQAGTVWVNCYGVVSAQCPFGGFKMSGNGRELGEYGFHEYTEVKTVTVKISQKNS
How it is done:
(§1) To determine the IC50 values for CB29 and its analogues, propionaldehyde was used as the substrate for ALDH1A1 and ALDH2 and benzaldehyde was used as the substrate for ALDH3A1. The assays were performed at various concentrations of inhibitors, ranging from 50 nM to 250 uM, following 1 min preincubation. All reactions were initiated by the addition of the aldehyde substrate.

Experiment [2] addresses T2, Aldehyde dehydrogenase, dimeric NADP-preferring (Homo sapiens, UniProt P30838).
T2 sequence (P30838 whole entry): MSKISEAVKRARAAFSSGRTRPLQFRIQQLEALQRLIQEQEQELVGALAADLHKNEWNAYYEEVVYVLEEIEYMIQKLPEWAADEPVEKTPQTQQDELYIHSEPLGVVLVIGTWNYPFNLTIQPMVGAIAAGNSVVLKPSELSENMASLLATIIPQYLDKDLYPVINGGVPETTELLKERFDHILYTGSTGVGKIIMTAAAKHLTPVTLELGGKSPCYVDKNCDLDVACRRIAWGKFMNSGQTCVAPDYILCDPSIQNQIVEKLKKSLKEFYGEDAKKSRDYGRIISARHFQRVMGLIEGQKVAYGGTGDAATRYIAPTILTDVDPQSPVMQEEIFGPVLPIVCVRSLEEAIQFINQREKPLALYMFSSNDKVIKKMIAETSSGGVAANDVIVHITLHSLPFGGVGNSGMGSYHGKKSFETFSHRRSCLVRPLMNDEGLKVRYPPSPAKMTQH
As to the method: as §1

Experiment [3] has as its target T2, Aldehyde dehydrogenase, dimeric NADP-preferring. The source holds these as a separate data set.

Regarding `CNS(=O)(=O)c1ccc(Nc2ccc(NC(=O)CC(C)C)cc2)c([N+](=O)[O-])c1` [CB29 (derivative 13)], the IC50 in experiment [1] came to 11.6 µM; in experiment [2], 42.3 µM. Taken in the same sequence, the figures for `CC(C)C(=O)Nc1ccc(Nc2ccc(S(C)(=O)=O)cc2[N+](=O)[O-])cc1` [CB29 (derivative 12)] were 16.8 µM and 19.6 µM. As for `CC(=O)Nc1ccc(Nc2ccc(S(C)(=O)=O)cc2[N+](=O)[O-])cc1` [CB29], the IC50 in experiment [2] was 16 µM. Besides, the inhibitory constant (Ki) in experiment [3] is 4.7 µM.

`CC(=O)Nc1ccc(Oc2ccc(S(=O)(=O)C(F)(F)F)cc2[N+](=O)[O-])cc1` [CB29 (derivative 20)]: in experiment [2], half-maximal inhibition (IC50) required 100 µM. On to `CN(C)c1ccc(Nc2ccc(S(=O)(=O)C(F)(F)F)cc2[N+](=O)[O-])cc1` [CB29 (derivative 5)], for which inhibition in experiment [2] was half-maximal at 17 µM (IC50). On the same count and under the same terms, under `CC(C)NS(=O)(=O)c1ccc(Nc2cccc(NC3CC3)c2)c([N+](=O)[O-])c1` [CB29 (derivative 9)] stands 26.3 µM. In turn, `CC(Nc1ccc(S(C)(=O)=O)cc1[N+](=O)[O-])C(=O)O` (configuration not stated) [CB29 (derivative 16)] displayed an IC50 in experiment [1] of 50 µM. In experiment [2], `CC(C)NS(=O)(=O)c1ccc(NC2CCN(CC(=O)Nc3ccccc3)CC2)c([N+](=O)[O-])c1` [CB29 (derivative 19)] registered an IC50 of 25.6 µM. Consider `CS(=O)(=O)c1ccc(Nc2ccc(NCC3CCCC3)cc2)c(S(C)(=O)=O)c1` [CB29 (derivative 6)], for which the half-inhibitory concentration (IC50) in experiment [1] was 32 µM; in experiment [2] it was 40 µM. As to `CC(C)NS(=O)(=O)c1ccc(Nc2ccc3c(c2)CCC3)c([N+](=O)[O-])c1` [CB29 (derivative 18)], the IC50 in experiment [2] came out at 30.5 µM.

`CCN(CC)S(=O)(=O)c1ccc(Nc2ccc(NC(=O)C(C)C)cc2)c([N+](=O)[O-])c1` [CB29 (derivative 14)]: the results for the IC50 in experiment [1] and in experiment [2] were 8.3 µM and 100 µM, respectively. On to `CS(=O)(=O)c1ccc(Nc2ccc3c(c2)CCC3)c([N+](=O)[O-])c1` [CB29 (derivative 17)], for which, in experiment [2], inhibition was half-maximal at 26.9 µM (IC50).

For orientation: IC50 means the concentration that gives 50% inhibition. A higher IC50 goes with a need for much substance. Usually Ki stands for the dissociation constant of the complex between target and ligand, obtained from inhibition or displacement. Low readings indicate tighter binding, high ones weaker binding.

Values taken from BindingDB's records for doi:10.1002/cbic.201300625 (Indiana University, 2014).
